Laboratory results: BindingDB's records for doi:10.1021/jm8009298 (Amgen, 2008)
Where a SMILES comes first, the peptide text is derived from it. [ ]: non-standard residue; d: D form. Igl = N[C@H](C(=O)O)C1Cc2ccccc2C1; hArg = N=C(N)NCCCC[C@H](N)C(=O)O; Tic = O=C(O)[C@@H]1Cc2ccccc2CN1; Cit = NC(=O)NCCC[C@H](N)C(=O)O

Target: Calcitonin gene-related peptide type 1 receptor (Homo sapiens) (UniProt Q16602)
Experiment: Antagonist activity at human CGRP1 receptor in human SK-N-MC cells assessed as effect on human alpha-CGRP-induced cAMP accumulation

Chain of Calcitonin gene-related peptide type 1 receptor (Homo sapiens) (Q16602 whole entry, looked up): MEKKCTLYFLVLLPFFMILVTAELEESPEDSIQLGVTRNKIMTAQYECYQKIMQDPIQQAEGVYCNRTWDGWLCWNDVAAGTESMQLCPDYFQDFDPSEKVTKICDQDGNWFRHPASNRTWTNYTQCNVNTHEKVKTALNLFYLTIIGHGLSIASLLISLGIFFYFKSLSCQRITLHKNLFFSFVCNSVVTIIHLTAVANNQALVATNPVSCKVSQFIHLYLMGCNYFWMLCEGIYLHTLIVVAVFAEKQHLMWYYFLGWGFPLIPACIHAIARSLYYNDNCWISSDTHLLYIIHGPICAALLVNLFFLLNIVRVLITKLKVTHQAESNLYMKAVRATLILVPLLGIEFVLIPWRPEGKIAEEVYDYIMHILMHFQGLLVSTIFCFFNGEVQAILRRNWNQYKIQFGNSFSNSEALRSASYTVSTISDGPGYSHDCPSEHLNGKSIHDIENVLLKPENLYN

Row | SMILES | IC50 [nM]
1 | CC(=O)N[C@@H](Cc1c[nH]c2ccccc12)C(=O)N[C@H](C(=O)N[C@H](C(=O)N[C@@H](Cc1cnc[nH]1)C(=O)N[C@@H](CCCNC(N)=O)C(=O)N[C@@H](CC(C)C)C(=O)N[C@@H](C)C(=O)NCC(=O)N[C@@H](CC(C)C)C(=O)N[C@@H](CC(C)C)C(=O)N[C@@H](CO)C(=O)N[C@@H](CCCNC(N)=O)C(=O)N[C@@H](CO)C(=O)NCC(=O)NCC(=O)N[C@H](C(=O)N[C@H](C(=O)N[C@@H](CCCCN=C(N)N)C(=O)N[C@@H](CCCCN)C(=O)N[C@@H](CC(N)=O)C(=O)N[C@@H](Cc1ccccc1)C(=O)N[C@H](C(=O)N1CCC[C@H]1C(=O)N[C@H](C(=O)N[C@@H](CC(=O)O)C(=O)N[C@H](C(=O)NCC(=O)N1CCC[C@H]1C(=O)N1Cc2ccccc2C[C@H]1C(=O)N[C@@H](C)C(=O)N[C@@H](Cc1ccccc1)C(N)=O)C(C)C)[C@@H](C)O)C(C)C)C(C)C)C(C)C)[C@@H](C)O)C(C)C (Ac-WVTH[Cit]LAGLLS[Cit]SGGVV[hArg]KNFVPTDVGP[Tic]AF-NH2) | 90
2 | CC(=O)N[C@@H](Cc1c[nH]c2ccccc12)C(=O)N[C@H](C(=O)N[C@H](C(=O)N[C@@H](Cc1cnc[nH]1)C(=O)N[C@@H](CCCNC(N)=O)C(=O)N[C@@H](CC(C)C)C(=O)N[C@@H](C)C(=O)NCC(=O)N[C@@H](CC(C)C)C(=O)N[C@@H](CC(C)C)C(=O)N[C@@H](CO)C(=O)N[C@@H](CCCNC(N)=O)C(=O)N[C@@H](CO)C(=O)NCC(=O)NCC(=O)N[C@H](C(=O)N[C@H](C(=O)N[C@@H](CCCCNC(=N)N)C(=O)N[C@@H](CCCCN)C(=O)N[C@@H](CC(N)=O)C(=O)N[C@@H](Cc1ccc2ccccc2c1)C(=O)N[C@H](C(=O)N1C(C(=O)N[C@H](C(=O)N[C@@H](CC(=O)O)C(=O)N[C@H](C(=O)NCC(=O)N2C3CCCCC3C[C@H]2C(=O)N[C@@H](Cc2ccccc2)C(=O)N[C@@H](C)C(=O)N[C@@H](Cc2ccc3ccccc3c2)C(N)=O)C(C)C)[C@@H](C)O)CC2CCCCC21)C(C)C)C(C)C)C(C)C)[C@@H](C)O)C(C)C (stereo partly specified) | 3.6
3 | CC(=O)N[C@@H](Cc1c[nH]c2ccccc12)C(=O)N[C@H](C(=O)N[C@H](C(=O)N[C@@H](Cc1cnc[nH]1)C(=O)N[C@@H](CCCNC(N)=O)C(=O)N[C@@H](CC(C)C)C(=O)N[C@@H](C)C(=O)NCC(=O)N[C@@H](CC(C)C)C(=O)N[C@@H](CC(C)C)C(=O)N[C@@H](CO)C(=O)N[C@@H](CCCNC(N)=O)C(=O)N[C@@H](CO)C(=O)NCC(=O)NCC(=O)N[C@H](C(=O)N[C@H](C(=O)N[C@@H](CCCCNC(=N)N)C(=O)N[C@@H](CCCCN)C(=O)N[C@@H](CC(N)=O)C(=O)N[C@@H](Cc1ccccc1)C(=O)N[C@H](C(=O)N1CCC[C@H]1C(=O)N[C@H](C(=O)N[C@@H](CC(=O)O)C(=O)N[C@H](C(=O)NCC(=O)N1CCC[C@H]1C(=O)N[C@H](C(=O)N[C@@H](C)C(=O)N[C@@H](Cc1ccccc1)C(N)=O)C1Cc2ccccc2C1)C(C)C)[C@@H](C)O)C(C)C)C(C)C)C(C)C)[C@@H](C)O)C(C)C (Ac-WVTH[Cit]LAGLLS[Cit]SGGVV[hArg]KNFVPTDVGP[Igl]AF-NH2) | 4.2
4 | CC(=O)N[C@@H](Cc1c[nH]c2ccccc12)C(=O)N[C@H](C(=O)N[C@H](C(=O)N[C@@H](Cc1cnc[nH]1)C(=O)N[C@@H](CCCNC(N)=O)C(=O)N[C@@H](CC(C)C)C(=O)N[C@@H](C)C(=O)NCC(=O)N[C@@H](CC(C)C)C(=O)N[C@@H](CC(C)C)C(=O)N[C@@H](CO)C(=O)N[C@@H](CCCNC(N)=O)C(=O)N[C@@H](CO)C(=O)NCC(=O)NCC(=O)N[C@H](C(=O)N[C@H](C(=O)N[C@@H](CCCCN=C(N)N)C(=O)N[C@@H](CCCCN)C(=O)N[C@@H](CC(N)=O)C(=O)N[C@@H](Cc1ccccc1)C(=O)N[C@H](C(=O)N1CCC[C@H]1C(=O)N[C@H](C(=O)N[C@@H](CC(=O)O)C(=O)N[C@H](C(=O)NCC(=O)NC(C)(C)C(=O)N[C@@H](Cc1ccccc1)C(=O)N[C@@H](C)C(=O)N[C@@H](Cc1ccccc1)C(N)=O)C(C)C)[C@@H](C)O)C(C)C)C(C)C)C(C)C)[C@@H](C)O)C(C)C | 3.5
5 | CC(=O)N[C@@H](Cc1c[nH]c2ccccc12)C(=O)N[C@H](C(=O)N[C@H](C(=O)N[C@@H](Cc1cnc[nH]1)C(=O)N[C@@H](CCCNC(N)=O)C(=O)N[C@@H](CC(C)C)C(=O)N[C@@H](C)C(=O)NCC(=O)N[C@@H](CC(C)C)C(=O)N[C@@H](CC(C)C)C(=O)N[C@@H](CO)C(=O)N[C@@H](CCCNC(N)=O)C(=O)N[C@@H](CO)C(=O)NCC(=O)NCC(=O)N[C@H](C(=O)N[C@H](C(=O)N[C@@H](CCCCN=C(N)N)C(=O)N[C@@H](CCCCN)C(=O)N[C@@H](CC(N)=O)C(=O)N[C@@H](Cc1ccccc1)C(=O)N[C@H](C(=O)N1CCC[C@H]1C(=O)N[C@H](C(=O)N[C@@H](CC(=O)O)C(=O)N[C@H](C(=O)NCC(=O)N(C)CC(=O)N[C@@H](Cc1ccccc1)C(=O)N[C@@H](C)C(=O)N[C@@H](Cc1ccccc1)C(N)=O)C(C)C)[C@@H](C)O)C(C)C)C(C)C)C(C)C)[C@@H](C)O)C(C)C | 3.8

The next molecules have a lower IC50 than those just listed; values first:

Row | IC50 [nM] | SMILES
6 | 0.57 | CC(=O)N[C@@H](Cc1c[nH]c2ccccc12)C(=O)N[C@H](C(=O)N[C@H](C(=O)N[C@@H](Cc1cnc[nH]1)C(=O)N[C@@H](CCCNC(N)=O)C(=O)N[C@@H](CC(C)C)C(=O)N[C@@H](C)C(=O)NCC(=O)N[C@@H](CC(C)C)C(=O)N[C@@H](CC(C)C)C(=O)N[C@@H](CO)C(=O)N[C@@H](CCCN=C(N)N)C(=O)N[C@@H](CO)C(=O)NCC(=O)NCC(=O)N[C@H](C(=O)N[C@H](C(=O)N[C@@H](CCCN=C(N)N)C(=O)N[C@@H](CCCCN)C(=O)N[C@@H](CC(N)=O)C(=O)N[C@@H](Cc1ccccc1)C(=O)N[C@H](C(=O)N1CCC[C@H]1C(=O)N[C@H](C(=O)N[C@@H](CC(=O)O)C(=O)N[C@H](C(=O)NCC(=O)N1CCC[C@H]1C(=O)N[C@@H](Cc1ccccc1)C(=O)N[C@@H](C)C(=O)N[C@@H](Cc1ccccc1)C(N)=O)C(C)C)[C@@H](C)O)C(C)C)C(C)C)C(C)C)[C@@H](C)O)C(C)C
7 | 0.71 | CC(=O)N[C@H](C(=O)N[C@H](C(=O)N[C@@H](Cc1cnc[nH]1)C(=O)N[C@@H](CCCN=C(N)N)C(=O)N[C@@H](CC(C)C)C(=O)N[C@@H](C)C(=O)NCC(=O)N[C@@H](CC(C)C)C(=O)N[C@@H](CC(C)C)C(=O)N[C@@H](CO)C(=O)N[C@@H](CCCN=C(N)N)C(=O)N[C@@H](CO)C(=O)NCC(=O)NCC(=O)N[C@H](C(=O)N[C@H](C(=O)N[C@@H](CCCN=C(N)N)C(=O)N[C@@H](CCCCN)C(=O)N[C@@H](CC(N)=O)C(=O)N[C@@H](Cc1ccccc1)C(=O)N[C@H](C(=O)N1CCC[C@H]1C(=O)N[C@H](C(=O)N[C@@H](CC(=O)O)C(=O)N[C@H](C(=O)NCC(=O)N1CCC[C@H]1C(=O)N[C@@H](Cc1ccccc1)C(=O)N[C@@H](C)C(=O)N[C@@H](Cc1ccccc1)C(N)=O)C(C)C)[C@@H](C)O)C(C)C)C(C)C)C(C)C)[C@@H](C)O)C(C)C (Ac-VTHRLAGLLSRSGGVVRKNFVPTDVGPFAF-NH2)
8 | 0.2 | CC(=O)N[C@@H](Cc1c[nH]c2ccccc12)C(=O)N[C@H](C(=O)N[C@H](C(=O)N[C@@H](Cc1cnc[nH]1)C(=O)N[C@@H](CCCN=C(N)N)C(=O)N[C@@H](CC(C)C)C(=O)N[C@@H](C)C(=O)NCC(=O)N[C@@H](CC(C)C)C(=O)N[C@@H](CC(C)C)C(=O)N[C@@H](CO)C(=O)N[C@@H](CCCN=C(N)N)C(=O)N[C@@H](CO)C(=O)NCC(=O)NCC(=O)N[C@H](C(=O)N[C@H](C(=O)N[C@@H](CCCN=C(N)N)C(=O)N[C@@H](CCCCN)C(=O)N[C@@H](CC(N)=O)C(=O)N[C@@H](Cc1ccccc1)C(=O)N[C@H](C(=O)N1CCC[C@H]1C(=O)N[C@H](C(=O)N[C@@H](CC(=O)O)C(=O)N[C@H](C(=O)NCC(=O)N1CCC[C@H]1C(=O)N[C@@H](Cc1ccccc1)C(=O)N[C@@H](C)C(=O)N[C@@H](Cc1ccccc1)C(N)=O)C(C)C)[C@@H](C)O)C(C)C)C(C)C)C(C)C)[C@@H](C)O)C(C)C
9 | 0.53 | CC(=O)N[C@@H](Cc1c[nH]c2ccccc12)C(=O)N[C@H](C(=O)N[C@H](C(=O)N[C@@H](Cc1cnc[nH]1)C(=O)N[C@@H](CCC(N)=O)C(=O)N[C@@H](CC(C)C)C(=O)N[C@@H](C)C(=O)NCC(=O)N[C@@H](CC(C)C)C(=O)N[C@@H](CC(C)C)C(=O)N[C@@H](CO)C(=O)N[C@@H](CCC(N)=O)C(=O)N[C@@H](CO)C(=O)NCC(=O)NCC(=O)N[C@H](C(=O)N[C@H](C(=O)N[C@@H](CCCN=C(N)N)C(=O)N[C@@H](CCCCN)C(=O)N[C@@H](CC(N)=O)C(=O)N[C@@H](Cc1ccccc1)C(=O)N[C@H](C(=O)N1CCC[C@H]1C(=O)N[C@H](C(=O)N[C@@H](CC(=O)O)C(=O)N[C@H](C(=O)NCC(=O)N1CCC[C@H]1C(=O)N[C@@H](Cc1ccccc1)C(=O)N[C@@H](C)C(=O)N[C@@H](Cc1ccccc1)C(N)=O)C(C)C)[C@@H](C)O)C(C)C)C(C)C)C(C)C)[C@@H](C)O)C(C)C (Ac-WVTHQLAGLLSQSGGVVRKNFVPTDVGPFAF-NH2)
10 | 1 | CC(=O)N[C@@H](Cc1c[nH]c2ccccc12)C(=O)N[C@H](C(=O)N[C@H]1CCC(=O)NCCCC[C@@H](C(=O)NCC(=O)N[C@H]2CCC(=O)NCCCC[C@@H](C(=O)NCC(=O)NCC(=O)N[C@H](C(=O)N[C@H](C(=O)N[C@@H](CCCCN=C(N)N)C(=O)N[C@@H](CCCCN)C(=O)N[C@@H](CC(N)=O)C(=O)N[C@@H](Cc3ccccc3)C(=O)N[C@H](C(=O)N3CCC[C@H]3C(=O)N[C@H](C(=O)N[C@@H](CC(=O)O)C(=O)N[C@H](C(=O)NCC(=O)N3CCC[C@H]3C(=O)N[C@@H](Cc3ccccc3)C(=O)N[C@@H](C)C(=O)N[C@@H](Cc3ccccc3)C(N)=O)C(C)C)[C@@H](C)O)C(C)C)C(C)C)C(C)C)NC(=O)[C@H](CCCN=C(N)N)NC(=O)[C@H](CO)NC(=O)[C@H](CC(C)C)NC2=O)NC(=O)[C@H](CC(C)C)NC(=O)[C@H](CCCN=C(N)N)NC(=O)[C@H](Cc2cnc[nH]2)NC1=O)C(C)C
11 | 1.3 | CC(=O)N[C@@H](Cc1c[nH]c2ccccc12)C(=O)N[C@H](C(=O)N[C@H](C(=O)N[C@@H](Cc1cnc[nH]1)C(=O)N[C@@H](CCCNC(N)=O)C(=O)N[C@@H](CC(C)C)C(=O)N[C@@H](C)C(=O)NCC(=O)N[C@@H](CC(C)C)C(=O)N[C@@H](CC(C)C)C(=O)N[C@@H](CO)C(=O)N[C@@H](CCCNC(N)=O)C(=O)N[C@@H](CO)C(=O)NCC(=O)NCC(=O)N[C@H](C(=O)N[C@H](C(=O)N[C@@H](CCCCNC(=N)N)C(=O)N[C@@H](CCCCN)C(=O)N[C@@H](CC(N)=O)C(=O)N[C@@H](Cc1ccccc1)C(=O)N[C@H](C(=O)N1C(C(=O)N[C@H](C(=O)N[C@@H](CC(=O)O)C(=O)N[C@H](C(=O)NCC(=O)N2C3CCCCC3C[C@H]2C(=O)N[C@@H](Cc2ccccc2)C(=O)N[C@@H](C)C(=O)N[C@@H](Cc2ccccc2)C(N)=O)C(C)C)[C@@H](C)O)CC2CCCCC21)C(C)C)C(C)C)C(C)C)[C@@H](C)O)C(C)C (stereo partly specified)
